Experimental data: publication PMC8421423, “Cellular model system to dissect the isoform-selectivity of Akt inhibitors” (Nature Communications, 2021)
Values joined by “and” are separate entries in the source; they are usually repeats but may differ in a detail not shown here. Identical values can stand only once. Like-named read-outs stand apart in the source and are kept apart here.

Experiments:
pAkt1 = experiment: Western blot analysis, PANC1 cells; format: cell-based, human; conditions: PANC1, 24-h treatment
Akt1 = Akt1 (Homo sapiens, UniProt P31749); experiment: PhosphoSens continuous fluorometric kinetic enzyme assay
Procedure: (§2) By addition of either 8 nM Akt1, 2 nM Akt2, or 5 nM Akt3 (final concentrations) the reactions were initiated. […] Afterwards the kobs-values were plotted versus the inhibitor concentrations [I] and then fit to the following hyperbolic Eq.

Akt2 [1] = target: T1, Akt2 (Homo sapiens, UniProt P31751); experiment: as above
Target sequence in this assay (P31751 whole entry): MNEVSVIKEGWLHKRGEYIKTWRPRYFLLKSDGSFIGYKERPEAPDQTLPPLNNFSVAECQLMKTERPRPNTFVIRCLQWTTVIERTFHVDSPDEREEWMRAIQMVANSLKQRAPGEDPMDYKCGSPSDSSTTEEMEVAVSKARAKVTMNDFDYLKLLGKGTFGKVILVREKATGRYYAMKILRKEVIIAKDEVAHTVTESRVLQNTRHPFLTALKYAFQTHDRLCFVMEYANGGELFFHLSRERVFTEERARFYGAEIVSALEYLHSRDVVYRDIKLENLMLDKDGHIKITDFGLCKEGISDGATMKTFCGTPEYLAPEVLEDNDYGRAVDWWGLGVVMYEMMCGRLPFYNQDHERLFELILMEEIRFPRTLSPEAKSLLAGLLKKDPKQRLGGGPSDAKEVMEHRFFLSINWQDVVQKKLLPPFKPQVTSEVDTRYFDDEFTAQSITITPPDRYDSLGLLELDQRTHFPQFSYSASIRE
Procedure: as §2

Akt3 [2] = target: T2, Akt3 (Homo sapiens, UniProt Q9Y243, E113A/E114A/E115A); experiment: ESI-MS/MS of tryptic digest (modified cysteine residues); format: binding; conditions: 5-fold molar excess of inhibitor
T2 construct: AKT3(2–443, E114/115/116A); His6 with TEV protease recognition site (N, cleaved yes); made in house; host or cells: Spodoptera frugiperda (Sf9)
Procedure: (§1) ESI-MS/MS samples were prepared as stated above followed by steps of reduction, alkylation, and tryptic digest. The digested samples were stage tip-purified using C18 tips and according to a protocol described elsewhere. Subsequently, samples were thawed, dissolved in 20 μL of 0.1% TFA in water, sonicated at room temperature for 15 min, and centrifuged at 15,000×g for 1 min shortly before analysis. In all, 3 μL of sample were loaded onto a pre-column cartridge and desalted for 5 min using 0.1% TFA in water as eluent at a flow rate of 30 μL/min. The samples were back-flushed from the pre-column to the nano-HPLC column during the whole analysis. Elution was performed using a gradient starting at 5% B with a final composition of 30% B after 35 min (flow rate 300 nL/min) using 0.1% formic acid in water as eluent A and 0.1% formic acid in acetonitrile as eluent B and a column temperature of 40 °C. […] During the complete gradient cycle, a typical TOP10 shot-gun proteomics method for the MS and MS/MS analysis was used. For full scan MS experiments a mass range of m/z 300–1650 was scanned with a resolution of 70000. MS/MS experiments were followed by up to 10 high energy collision dissociation (HCD) MS/MS scans with a resolution of 17,500 of the most intense at least doubly charged ions. Data evaluation was performed using MaxQuant[50]. Spectra were searched against the specific Akt sequence and a contamination database using a false discovery rate of 1% on peptide and protein level using a decoy database for determination of the false discovery rate. For database search oxidation of methionine and N-terminal acetylation of proteins, carbamidomethylation of cysteines, and artificial modification of cysteines were defined as variable modifications.

Akt3 [3] = target: Akt3 (Homo sapiens, UniProt Q9Y243); experiment: PhosphoSens continuous fluorometric kinetic enzyme assay
Procedure: as §2

Akt2 [4] = target: T1, Akt2; experiment: ESI-MS/MS of tryptic digest (modified cysteine residues); format: binding; set-up: AKT2(2–447); His6 with TEV protease recognition site (N, cleaved yes); made in house; host or cells: Spodoptera frugiperda (Sf9); conditions: 5-fold molar excess of inhibitor
Procedure: as §1, with “Spectra were searched against the specific Akt sequence and a contamination database using a false discovery rate of 1% on peptide and protein level using a decoy database for determination of the false discovery rate. For database search oxidation of methionine and N-terminal acetylation of proteins, carbamidomethylation of cysteines, and artificial modification of cysteines were defined as variable modifications.” left out
Target sequence in this assay (P31751 2-447): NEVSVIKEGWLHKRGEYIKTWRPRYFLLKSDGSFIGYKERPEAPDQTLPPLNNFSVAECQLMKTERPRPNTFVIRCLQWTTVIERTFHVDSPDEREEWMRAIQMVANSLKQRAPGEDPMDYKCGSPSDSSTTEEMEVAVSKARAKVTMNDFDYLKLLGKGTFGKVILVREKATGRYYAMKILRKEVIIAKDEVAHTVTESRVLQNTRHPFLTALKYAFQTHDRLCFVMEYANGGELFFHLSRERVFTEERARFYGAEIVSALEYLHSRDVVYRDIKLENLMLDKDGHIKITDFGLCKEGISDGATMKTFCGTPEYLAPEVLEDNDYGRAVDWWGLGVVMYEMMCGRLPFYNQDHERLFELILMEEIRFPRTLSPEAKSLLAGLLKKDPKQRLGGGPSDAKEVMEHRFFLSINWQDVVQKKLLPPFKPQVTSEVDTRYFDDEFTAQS

[5] = Ki Akt2, Mean, mean of replicates
[6] = Ki Akt2, individual determinations, single replicates
[7] = read-out: kinact Akt2, individual determinations, single replicates
[8] = Ki Akt3, Mean, mean of replicates
[9] = Ki Akt3, individual determinations, single replicates
[10] = read-out: kinact /Ki Akt3, individual determinations, single replicates
[11] = read-out: kinact Akt3, Mean, mean of replicates
[12] = read-out: kinact Akt3, individual determinations, single replicates

Akt1, sequence (P31749 whole entry): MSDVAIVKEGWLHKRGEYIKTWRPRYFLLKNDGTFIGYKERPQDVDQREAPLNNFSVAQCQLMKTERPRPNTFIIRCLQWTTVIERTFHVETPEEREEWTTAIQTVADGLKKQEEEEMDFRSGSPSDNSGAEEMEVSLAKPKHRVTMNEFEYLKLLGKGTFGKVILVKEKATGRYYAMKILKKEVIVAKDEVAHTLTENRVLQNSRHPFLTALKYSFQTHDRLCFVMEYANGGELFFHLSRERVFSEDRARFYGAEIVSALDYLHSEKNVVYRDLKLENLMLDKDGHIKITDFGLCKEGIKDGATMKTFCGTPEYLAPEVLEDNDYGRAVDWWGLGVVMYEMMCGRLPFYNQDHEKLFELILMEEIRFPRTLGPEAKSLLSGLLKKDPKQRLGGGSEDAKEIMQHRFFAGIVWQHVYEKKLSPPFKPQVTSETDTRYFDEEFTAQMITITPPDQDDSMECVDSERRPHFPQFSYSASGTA
Akt3 (Homo sapiens, UniProt Q9Y243), sequence (Q9Y243 whole entry): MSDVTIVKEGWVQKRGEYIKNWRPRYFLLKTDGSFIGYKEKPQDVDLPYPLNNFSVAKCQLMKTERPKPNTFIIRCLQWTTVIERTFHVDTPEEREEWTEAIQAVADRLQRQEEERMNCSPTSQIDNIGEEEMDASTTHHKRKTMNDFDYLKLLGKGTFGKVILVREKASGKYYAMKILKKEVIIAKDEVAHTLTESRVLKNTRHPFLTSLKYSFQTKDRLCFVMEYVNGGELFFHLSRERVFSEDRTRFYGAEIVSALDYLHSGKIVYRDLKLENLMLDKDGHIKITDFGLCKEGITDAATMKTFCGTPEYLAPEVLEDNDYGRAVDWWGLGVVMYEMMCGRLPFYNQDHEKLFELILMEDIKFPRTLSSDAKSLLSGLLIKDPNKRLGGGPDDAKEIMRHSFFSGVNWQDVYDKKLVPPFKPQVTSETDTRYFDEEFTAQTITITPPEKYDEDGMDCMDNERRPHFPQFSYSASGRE
T2 sequence (Q9Y243 2-443 E113A/E114A/E115A): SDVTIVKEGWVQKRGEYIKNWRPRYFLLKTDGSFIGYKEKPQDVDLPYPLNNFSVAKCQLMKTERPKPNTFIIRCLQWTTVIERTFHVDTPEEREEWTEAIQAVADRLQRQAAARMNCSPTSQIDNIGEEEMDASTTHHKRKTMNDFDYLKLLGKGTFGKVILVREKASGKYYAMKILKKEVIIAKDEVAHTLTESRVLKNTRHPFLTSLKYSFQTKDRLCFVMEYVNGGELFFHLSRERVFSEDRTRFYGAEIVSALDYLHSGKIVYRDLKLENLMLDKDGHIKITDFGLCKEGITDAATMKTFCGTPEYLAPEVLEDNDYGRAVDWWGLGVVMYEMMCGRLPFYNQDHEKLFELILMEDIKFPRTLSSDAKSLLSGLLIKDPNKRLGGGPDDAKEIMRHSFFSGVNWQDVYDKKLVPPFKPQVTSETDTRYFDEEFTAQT

Structure (SMILES) | pAkt1 level (immunoblot) (pAkt1) | Ki (Akt2 [1]; Ki Akt2) | Ki (Akt2 [1]; [5]) | Ki (Akt2 [1]; [6]) | kinact/KI (Akt2 [1]; read-out: kinact /Ki Akt2) | kinact (Akt2 [1]; read-out: kinact Akt2) | kinact (Akt2 [1]; [7]) | kinact Akt2, individual determinations (Akt2 [1]; single replicates) | Ki (Akt3 [3]; Ki Akt3) | Ki (Akt3 [3]; [8]) | Ki (Akt3 [3]; [9]) | kinact/KI (Akt3 [3]; read-out: kinact /Ki Akt3) | kinact/KI (Akt3 [3]; [10]) | kinact (Akt3 [3]; read-out: kinact Akt3) | kinact (Akt3 [3]; [11]) | kinact (Akt3 [3]; [12]) | kinact Akt3, individual determinations (Akt3 [3]; single replicates) | other results
C=CC(=O)Nc1ccc2[nH]c(=O)n(C3CCN(Cc4ccc(-c5ncccc5-c5ccccc5)cc4)CC3)c2c1 [compound 1] | downregulation of pAkt1 and pAkt2 | – | – | – | – | – | – | – | – | – | – | – | – | – | – | – | – | Ki (Akt1; Ki Akt1): 0.006 ± 0.002 µM; Ki (Akt1; Ki Akt1, Mean, mean of replicates): 0.00577 µM; Ki (Akt1; Ki Akt1, individual determinations, single replicates): 0.00395 µM and 0.00528 µM and 0.00808 µM; kinact/KI (Akt1; read-out: kinact /Ki Akt1): 38000 ± 10000 M⁻¹ s⁻¹; kinact/KI (Akt1; read-out: kinact /Ki Akt1, Mean, mean of replicates): 36000 M⁻¹ s⁻¹; kinact/KI (Akt1; read-out: kinact /Ki Akt1, individual determinations, single replicates): 36000 M⁻¹ s⁻¹; kinact (Akt1; read-out: kinact Akt1): 0.0002 s⁻¹; kinact (Akt1; read-out: kinact Akt1, individual determinations, single replicates): 0.00015 s⁻¹; kinact Akt1, individual determinations (Akt1; single replicates): 0.015 min⁻¹ and 0.011 min⁻¹
C=CC(=O)Nc1ccc2[nH]c(=O)n(C3CCN(Cc4ccc(-c5ncc(Cc6ccc(N)nc6)cc5-c5ccccc5)cc4)CC3)c2c1 [compound 20] | – | 0.095 ± 0.014 µM | 0.0944 µM | 0.0986 µM and 0.101 µM and 0.0712 µM and 0.107 µM | 4000 ± 1000 M⁻¹ s⁻¹ | 0.00035 s⁻¹ | 0.000383 s⁻¹ | 0.025 min⁻¹ and 0.022 min⁻¹ and 0.015 min⁻¹ | 0.053 ± 0.004 µM | 0.0701 µM | 0.0715 µM and 0.0734 µM and 0.0654 µM | 10000 ± 3000 M⁻¹ s⁻¹ | 8000 M⁻¹ s⁻¹ | 0.000733 s⁻¹ | 0.000767 s⁻¹ | 0.00055 s⁻¹ | 0.061 min⁻¹ | kinact/KI (Akt2 [1]; read-out: kinact /Ki Akt2, Mean, mean of replicates): 4000 M⁻¹ s⁻¹; modified cysteine residues in Akt3 (MS/MS) (Akt3 [2]): Cys293; kobs (mean) (Akt3 [3]; Akt3 + 20, concentration 2.5 nM): 5.68e-05 s⁻¹; kobs (mean) (Akt3 [3]; Akt3 + 20, concentration 4.9 nM): 4.71e-05 s⁻¹; kobs (mean) (Akt3 [3]; Akt3 + 20, concentration 9.9 nM): 8.01e-05 s⁻¹; kobs (mean) (Akt3 [3]; Akt3 + 20, concentration 39.5 nM): 0.00023 s⁻¹; kobs (mean) (Akt3 [3]; Akt3 + 20, concentration 123.8 nM): 0.000418 s⁻¹; kobs (mean) (Akt3 [3]; Akt3 + 20, concentration 247.5 nM): 0.000431 s⁻¹; kobs (mean) (Akt3 [3]; Akt3 + 20, concentration 371.3 nM): 0.000653 s⁻¹; kinact/KI (Akt3 [3]; read-out: kinact /Ki Akt3, Mean, mean of replicates): 11000 M⁻¹ s⁻¹
C=CC(=O)Nc1ccc2[nH]c(=O)n(C3CCN(Cc4ccc(-c5ncc(Cc6cn[nH]c6)cc5-c5ccccc5)cc4)CC3)c2c1 [compound 14] | pAkt1 signal remained stable | 0.011 ± 0.002 µM | 0.0104 µM | 0.0132 µM and 0.008 µM and 0.0099 µM | 25000 ± 6000 M⁻¹ s⁻¹ | 0.000267 s⁻¹ | 0.0002 s⁻¹ | 0.015 min⁻¹ and 0.017 min⁻¹ | 0.029 ± 0.004 µM | 0.0293 µM | 0.0355 µM and 0.0277 µM and 0.03 µM and 0.0242 µM | 13000 ± 2000 M⁻¹ s⁻¹ | 11000 M⁻¹ s⁻¹ | 0.000367 s⁻¹ | 0.000367 s⁻¹ | 0.0004 s⁻¹ | 0.023 min⁻¹ and 0.019 min⁻¹ and 0.022 min⁻¹ | kinact/KI (Akt2 [1]; read-out: kinact /Ki Akt2, individual determinations, single replicates): 15000 M⁻¹ s⁻¹; kinact (Akt2 [1]; read-out: kinact Akt2, Mean, mean of replicates): 0.00025 s⁻¹; modified cysteine residues in Akt2 (MS/MS) (Akt2 [4]): Cys297, Cys311, and Cys124
